Like-named read-outs stand apart in the source and are kept apart here.
How the values were obtained:
[1] = system: human rotavirus; design: method as in ref 39 = [39]; details: cited from earlier work
[2] = system: C6/36 cells; type: cell-based, Ae. albopictus
[3] = system: autophagic vesicles in Vero cells; test: Autophagy detection (CYTO-ID) in Vero cells; type: cell-based; details: 10 µM compound, 24 h, CYTO-ID green MFI vs DMSO control
[4] = system: ZIKV SPH; test: ZIKV SPH titer in compound-treated human neurons; type: cell-based, Zika virus; details: 10 µM, ZIKV SPH MOI 1.0, 4 days, TCID50
[5] = system: ZIKV SPH; test: 7-Ketocholesterol dose-response, ZIKV SPH titer in Vero cells; type: cell-based; details: Zika virus, MOI 1, 24 h, 0–27 µM, TCID50, R^2 = 0.9078
[6] = system: ZIKV SPH; test: qRT-PCR of ZIKV genomes in cells and supernatants; type: cell-based, Zika virus
[7] = system: ZIKV SPH; test: Time-of-addition assay in Vero cells; type: cell-based, Zika virus; details: for ZIKV titer, time-of-addition / Decrease of ZIKV titers, time-of-addition: Vero
[8] = system: ZIKV SPH; test: Autophagy compound library screen, ZIKV SPH titer (TCID50) in C6/36 cells; type: cell-based, Zika virus; details: 10 µM compound, MOI 0.1, 96 h, TCID50, ± SEM, three independent trials; for activity at 10 µM: Zika virus, C6/36, read-out: ZIKV SPH Relative Titer in C6/36 Cells
[9] = system: ZIKV IbH; test: Autophagy compound screen in Vero cells infected with ZIKV IbH; type: cell-based, Zika virus; details: African-lineage ZIKV IbH, 10 µM
[10] = system: human papillomavirus; design: method as in ref 39 = [39]; details: cited from earlier work
[11] = system: ZIKV SPH; test: 7-Ketocholesterol and ZIKV pre-incubation (virucidal effect); type: cell-based, Zika virus; details: 200 µM 7-KC, 1 h, room temperature, then diluted to approx. 0.2 µM on Vero cells, MOI 0.1, 40 hpi
[12] = system: human rhinovirus; design: method as in ref 39 = [39]; details: cited from earlier work
[13] = system: ZIKV; design: method as in ref 43 = [43]; details: by inhibiting viral entry; cited from earlier work
[14] = system: ZIKV; design: method as in ref 43 = [43]; details: by inhibiting viral entry; cited from earlier work; remark: listed apart in the source
[15] = system: ZIKV; design: method as in ref 12 = [12]; details: cited from earlier work
[16] = system: Vero cells; test: Cell viability (CellTiter-Glo) of Vero cells; type: cell-based; details: 10 µM
[17] = system: ZIKV SPH; test: Autophagy compound library screen, ZIKV SPH titer (TCID50) in Vero cells; type: cell-based, Zika virus; details: 10 µM compound, MOI 0.1, 40 h, TCID50, ± SEM, three independent trials
[18] = 10 µM compound, 96 h, CellTiter-Glo, ± SEM, three independent trials

## CC(C)CCC[C@@H](C)[C@H]1CC[C@H]2[C@@H]3C(=O)C=C4C[C@@H](O)CC[C@]4(C)[C@H]3CC[C@]12C [7-Ketocholesterol]
[1]
  Activity against human rotavirus: no activity
[2]; [18]
  C6/36 Viability: 36 ± 5.1% of untreated control
[3]
  Autophagy Activity Factor (AAF): 27.01
[4]
  ZIKV titer in human neurons: reduced ZIKV titer
[5]
  IC50: 4.06 µM
[6]; Vero cells, 10 µM 7-KC, 24 hpi
  Budding/release efficiency (genomes in supernatant vs cell associated genomes): approximately 30 % of untreated cells
  Number of viral genome copies in the supernatant: reduced
[6]; Vero cells, 10 µM 7-KC, total cellular RNA at 24 hpi
  Levels of ZIKV RNA in infected cells: not significantly altered
[6]; infectious titer vs genome copies in supernatant, Vero, 7-KC present, control 1 in 1200
  Specific infectivity: 1 in N genomes infectious: ~9000 genomes
[7]; 10 µM 7-KC added 12 h after infection, 24 hpi
  ZIKV titer, time-of-addition: ZIKV inhibition continued
[7]; 10 µM 7-KC added 18 h after infection, 24 hpi
  ZIKV titer, time-of-addition: slight decrease in titer
[7]; 10 µM 7-KC added at 2 hpi, MOI 0.1, 24 hpi
  Decrease of ZIKV titers, time-of-addition: 90%
[7]; 10 µM 7-KC added at 6 hpi, MOI 0.1, 24 hpi
  Decrease of ZIKV titers, time-of-addition: 90%
[7]; 10 µM 7-KC added at the time of infection, MOI 0.1, 24 hpi
  Decrease of ZIKV titers, time-of-addition: 90%
[7]; 10 µM 7-KC, pre-treating cells 2 h before infection, MOI 0.1, 24 hpi
  ZIKV titer, time-of-addition: did not reduce viral titers
[7]; Vero cells, 10 µM 7-KC, 24 hpi
  Decrease in infectious virions: greater than 90%
[8]
  activity at 10 µM: 9.8 ± 3.3%
[9]
  Reduction of ZIKV IbH: more than 90 % of control
  ZIKV IbH titer in Vero cells compared to control: reduced ZIKV IbH titers
[9]; listed as 7-KC
  ZIKV IbH titer in Vero cells compared to control: dropped titers more than a log
[10]
  Activity against human papillomavirus: no activity
[11]
  ZIKV titer after preincubation of virus stock with compound (virucidal effect): did not reduce viral titers
[12]
  Activity against human rhinovirus: minor activity

## C[C@H](CCCC(C)(C)O)[C@H]1CC[C@H]2[C@@H]3CC=C4C[C@@H](O)CC[C@]4(C)[C@H]3CC[C@]12C [25-hydroxycholesterol]
[13]
  ZIKV titers in vivo: reduced ZIKV titers
[14]
  ZIKV titers in vitro: reduced ZIKV titers

## CCN(CCO)CCCC(C)Nc1ccnc2cc(Cl)ccc12 (stereo not drawn) [Hydroxychloroquine]
[15]
  ZIKV spread in a mouse model: blocked ZIKV spread
[2]; 10 µM
  C6/36 Viability: 35 ± 9.7% of untreated control
[16]
  Vero Viability: 85.3 ± 8.4% of untreated control
[8]
  ZIKV SPH Relative Titer in C6/36 Cells: decreased titers
  activity at 10 µM: 25.1 ± 12.6%
[17]
  ZIKV SPH Relative Titer in Vero Cells: decreased titers

## C=CC(C)(C)c1cc(/C=C/C(=O)c2ccc(O)cc2)c(OC)cc1O [Licochalcone A]
[2]; [18]
  C6/36 Viability: 43 ± 2% of untreated control
[3]
  Autophagy Activity Factor (AAF): 12.33
[16]; 10 µM compound, 40 h, CellTiter-Glo, ± SEM, three independent trials
  Vero Viability: 100.7 ± 9.4% of untreated control
[16]; 10 µM compound, 40 h, CellTiter-Glo, ± SEM, three independent trials, listed as licochalcone A
  Vero Viability: above 80% of untreated control
[8]
  ZIKV SPH Relative Titer in C6/36 Cells: 51.8 ± 28.5% of untreated control
[9]
  ZIKV IbH titer in Vero cells compared to control: reduced ZIKV IbH titers
[17]
  ZIKV SPH Relative Titer in Vero Cells: 7.2 ± 2.9% of untreated control
[17]; listed as licochalcone A
  ZIKV SPH Relative Titer in Vero Cells: below 10% of untreated control
